Data taken from US9012604B2, “Triazanonane derivatives or pharmaceutically acceptable salt thereof for enhanced fluorine-18 labeling” (Snur & DB Foundation, priority 2011, dated 2015).

Test system: human serum protein
Assay: Human serum protein binding measurement
Assay type: in vitro ADME
Conditions: compared with NO2A compound
Experimental: The labeling compounds were cultured in human serum (1 mL) at 37° C. for 10 min and 60 min, and loaded to PD-10 column (pre-conditioned with 1 mL of 1% BSA/0.1 M DTPA), swept under stream of PBS into 30 test tubes by 0.5 mL fractions each. The radioactivity of each test tube was measured with gamma counter, and […] of sample was collected from the respective test tubes. After impression on the paper filter and staining with Coomassie blue, the protein peaks were observed. By plotting a curve of radioactivity of the respective fractions and calculating protein binding percent, the result was obtained as shown in Table 3.

How did the “binding to human serum protein relative to NO2A compound” value turn out when O=C(O)CCCN1CCN(CC(=O)O)CCN(CC(=O)O)CC1 [Example 1, 4,7-bis(carboxymethyl)-1,4,7-triazonane-1-butyric acid] was run?
Its value is “three times higher”.
